This passage reports Viable count results from US4528188A, “Polysaccharide PS-A obtained from barrenwort deriving from plants belonging to the genus Epimedium, process for preparation thereof and phylactic and immunostimulating agents comprising said polysaccharide PS-A effective component” (priority 1981, dated 1985).

Test [1] relates to E. coli ML 4707. The test can be described thus: Combination with antibiotics, normal state (Table 11). The class given is in vivo, E. coli; male mice of the ICR/JCL strain. To be noted: only ampicillin, 12.5 mg/kg twice. How it is done: A sample was administered subcutaneously to the back of each of 5-weeks-old male mice of the ICR/JCL strain having a body weight of about 25 g (each group consisting of 10 mice) once a day continuously for five days (5 times in total). PS was given to a control group. On the sixth day, 1.0×10^7 cells of E. coli ML 4707 was challenged thereto by the intraperitoneal injection. 12.5 mg/kg of ampicillin (Ampicillin sodium for injection; produced by Toyama Kagaku Co., Ltd., Japan) was administered to each mouse twice (directly after the intraperitoneal injection and 4 hours thereafter). Seven days after the challenge, viable count was examined.

For test [2], the system named is E. coli ML 4707. The test can be described thus: Combination with an antibiotic in the immunosuppressive state (Table 12). The class given is in vivo, E. coli; female mice of the ICR/JCL strain. The following applies: only ampicillin, 6.25 mg/kg s.c.; cyclophosphamide. The protocol: A sample was administered subcutaneously to the back of each of 5-weeks-old female mice of the ICR/JCL strain having a body weight of about 25 g (each group consisting of 10 mice) once a day continuously for four days (4 times in total). PS was given to a control group. On the first day, 200 mg/kg of cyclophosphamide was injected to them by the intraperitoneal injection. On the next day of the final administration (i.e. on the fifth day), 1.0×10^6 cells of E. coli ML 4707 was challenged thereto by the intraperitoneal injection. One hour thereafter, 6.25 mg/kg of ampicillin (Ampicillin-sodium for injection; produced by Toyama Kagaku Co., Ltd., Japan) was administered to the back of each mouse by the subcutaneous injection. Seven days after the challenge, viable count was examined.

Turning to `CC1(C)S[C@@H]2[C@H](NC(=O)[C@H](N)c3ccccc3)C(=O)N2[C@H]1C(=O)O` [ampicillin], the Viable count is reported as 20% in test [1] and 10% in test [2].
